Source: ChEMBL document CHEMBL1134422, “Synthesis and bioactivities of novel 5,6-bis(4-methoxyphenyl)-2H-pyridazin-3-one derivatives: inhibitors of interleukin-1 beta (IL-1beta) production” (Bioorg Med Chem Lett, 2001)

Key:
[1] = system: HL-60; assay: Inhibitory concentration against interleukin-1 beta production in HL-60 cells stimulated with lipopolysaccharide (LPS).; assay type: functional, cell-based; settings: Homo sapiens
[2] = species on record: Rattus norvegicus; assay: Pharmacokinetic property (AUC) in rat; assay type: ADME, organism-based; settings: in vivo
[3] = Pharmacokinetic property (Cmax) in rat; assay type: ADME, organism-based; settings: in vivo
[4] = Pharmacokinetic property (Tmax) in rat; assay type: ADME, organism-based; settings: in vivo
[5] = Pharmacokinetic property (t1/2) in rat; assay type: ADME, organism-based; settings: in vivo

SMILES	IC50 [1] [nM]	other results
COc1ccc(-c2cc(=O)n(CC3CC3)nc2-c2ccc(OC)cc2)cc1	1800	
COc1ccc(-c2cc(=O)n(CC(C)C)nc2-c2ccc(OC)cc2)cc1	> 100000	
COc1ccc(-c2cc(=O)n(C/C=C/c3ccccc3)nc2-c2ccc(OC)cc2)cc1	620	
C=CCn1nc(-c2ccc(OC)cc2)c(-c2ccc(OC)cc2)cc1=O	> 100000	
CCn1nc(-c2ccc(OC)cc2)c(-c2ccc(OC)cc2)cc1=O	610	
COc1ccc(-c2cc(=O)n(C(C)C)nc2-c2ccc(OC)cc2)cc1	1320	
COc1ccc(-c2cc(=O)n(Cc3ccccn3)nc2-c2ccc(OC)cc2)cc1	1480	
COc1ccc(-c2cc(=O)n(Cc3ccncc3)nc2-c2ccc(OC)cc2)cc1	520	
COc1ccc(-c2cc(=O)n(Cc3ccc(Cl)cc3)nc2-c2ccc(OC)cc2)cc1	530	
COc1ccc(-c2cc(=O)n(Cc3ccc(Cl)cc3Cl)nc2-c2ccc(OC)cc2)cc1	1100	
COc1ccc(-c2cc(=O)n(Cc3c(Cl)cccc3Cl)nc2-c2ccc(OC)cc2)cc1	3160	
COc1ccc(-c2cc(=O)n(C)nc2-c2ccc(OC)cc2)cc1	1130	
COc1ccc(-c2cc(=O)n(C3CC3)nc2-c2ccc(OC)cc2)cc1	7980	
COc1ccc(-c2cc(O)nnc2-c2ccc(OC)cc2)cc1	31600	
COc1ccc(-c2cc(=O)n(Cc3c(Cl)cc(Cl)cc3Cl)nc2-c2ccc(OC)cc2)cc1	9400	
COc1ccc(-c2cc(=O)n(Cc3ccc(F)c(F)c3)nc2-c2ccc(OC)cc2)cc1	540	

The next lines start with results.

IC50 [1] [nM]	SMILES	other results
210	COc1ccc(-c2cc(=O)n(Cc3ccc(Cl)c(Cl)c3)nc2-c2ccc(OC)cc2)cc1	
110	COc1ccc(-c2cc(=O)n(CC3CCCC3)nc2-c2ccc(OC)cc2)cc1	
270	COc1ccc(-c2cc(=O)n(C/C=C/c3ccc(Cl)cc3Cl)nc2-c2ccc(OC)cc2)cc1	
430	COc1ccc(-c2cc(=O)n(Cc3cccnc3)nc2-c2ccc(OC)cc2)cc1	
170	COc1ccc(-c2cc(=O)n(C/C=C/c3ccc(F)cc3)nc2-c2ccc(OC)cc2)cc1	
180	COc1ccc(-c2cc(=O)n(Cc3ccc(F)cc3F)nc2-c2ccc(OC)cc2)cc1	
100	COc1ccc(-c2cc(=O)n(C/C=C/c3ccc(F)cc3F)nc2-c2ccc(OC)cc2)cc1	
260	COc1ccc(-c2cc(=O)n(Cc3ccccc3)nc2-c2ccc(OC)cc2)cc1	
150	COc1ccc(-c2cc(=O)n(Cc3ccc(F)cc3)nc2-c2ccc(OC)cc2)cc1	
510	COc1ccc(-c2cc(=O)n(C3CCCC3)nc2-c2ccc(OC)cc2)cc1	
100	COc1ccc(-c2cc(=O)n(C/C=C/c3ccc(Cl)cc3)nc2-c2ccc(OC)cc2)cc1	AUC [2]: 3900 ng·h/mL; Cmax [3]: 316 ng/mL; Tmax [4]: 7 h; half-life [5]: 4.9 h
